Legend:
[1] = system: HEK-293 cells co-expressing GIRK1 and GIRK2; settings: dye loading 1 h, 1 mM Tl^+ stimulus; for on/off (Tl^+ flux assay), maximum fold increase in fluorescence after Tl^+ addition: 10 μM ML297, 2 mM Allura Red AC, n = 6
Procedure: HEK-293 cells co-expressing GIRK1 and GIRK2 were cultured to 80% confluence in a T75 flask (Techno Plastic Products, Trasadingen, CH) at 37° C. and 5% CO2 in medium consisting of Minimal Essential Medium (Cellgro, Manassas, Va.) containing 1× Glutagro (Cellgro, Manassas, Va.) and 10% (v/v) heat-inactivated fetal bovine serum (Life Technologies, Carlsbad, Calif.). The cells were dislodged by treatment with TrypLE (Gibco/Life Technologies, Carlsbad, Calif.), diluted in medium, and plated on clear bottomed, black-walled, amine coated 384 well plates (BD Biosciences, Billerica, Mass.) at a density ˜20,000 cells per well. The plated cells were incubated overnight at 37° C. and 5% CO2 and used for the assay the next day.
Dye loading solutions of Thallos were prepared by dissolving a 25 μg aliquot in 30 μL of 6.7% Pluoronic F-127 (w/v) in DMSO and diluting the resulting solution 1:1000 into assay buffer. Culture medium was removed and replaced with 20 μL of dye loading buffer and incubated in the dark at room temperature for 1 h.
Assay—Assays were conducted on a WaveFront Biosciences Panoptic 1 or 2 (WaveFront Biosciences, Franklin, Tenn.) as indicated. Dye loading solutions were removed and replaced with assay buffer immediately before imaging unless otherwise noted. 10 s following commencement of plate imaging, 20 μL of compound at 2.5× concentration in assay buffer was added and incubated for 120 s at which point 10 μL of Tl^+ at 5× concentration in stimulus buffer (125 mM NaHCO3, 1.8 mM CaSO4, 1 mM MgSO4, 5 mM glucose, 10 mM HEPES, pH 7.4, and T12SO4), and images taken for the following 120 s.
1 mM of T12SO4 (final concentration) was used for stimulus. Assay and stimulus buffers were supplemented with 2 mM of Allura Red AC. […] On/off ratios were calculated by dividing the fluorescence intensity after saturation following Tl^+ addition by the fluorescence intensity immediately after compound addition (n=6).

[2] = Determination of photochemical properties of saponified dyes; assay type: physicochemical; settings: for λmax (absorption maximum) / ε (molar absorptivity) / λem (fluorescence emission maximum): after saponification, 150 mM KCl, 10 mM HEPES, 50 μM EDTA, pH = 7.22; for ε (molar absorptivity): at λmax
Procedure: Evaluation of the photochemical properties of the active Thallium sensing species was accomplished by saponifying 10 μL of each pro-dye stock solution by incubating with 90 μL of 0.1 M KOH for 20 min at 37° C. with the exception of 8b which was treated with 1% NH4OH for 1 h at 37° C. The saponified compounds were diluted into 150 mM KCl buffered with 10 mM HEPES, pH=7.22 with 50 μM of EDTA. All photochemical measurements were taken in this buffer. Absorbance and fluorescence emission spectra were recorded on a Molecular Devices Spectromax M5 using polystyrene cuvettes with path length=1 cm at 23° C. Molar absorptivities are reported for λmax. The emission wavelengths monitored for recording excitation spectra, the excitation wavelengths used for recording emission spectra, and the corresponding emission cutoff filters used are listed in Table 2 below, and representative excitation and emission spectra are shown in FIG. 7.
To determine the in vitro photochemical properties of the active Tl^+ sensing species, 8a-m were treated with base to remove the acetoxymethyl esters and aryl acetate and then diluted into 10 mM HEPES buffered 150 mM KCl with 50 μM EDTA at pH=7.22.

GIRK1 and GIRK2 = target: T1, GIRK1 and GIRK2 (Homo sapiens, UniProt P48051+P48549); test: ML297 concentration response curves by Tl+ flux assay; assay type: cell-based
T1 construct: expressed in transfected cells; host or cells: HEK-293
T1 sequence (P48549 1-501): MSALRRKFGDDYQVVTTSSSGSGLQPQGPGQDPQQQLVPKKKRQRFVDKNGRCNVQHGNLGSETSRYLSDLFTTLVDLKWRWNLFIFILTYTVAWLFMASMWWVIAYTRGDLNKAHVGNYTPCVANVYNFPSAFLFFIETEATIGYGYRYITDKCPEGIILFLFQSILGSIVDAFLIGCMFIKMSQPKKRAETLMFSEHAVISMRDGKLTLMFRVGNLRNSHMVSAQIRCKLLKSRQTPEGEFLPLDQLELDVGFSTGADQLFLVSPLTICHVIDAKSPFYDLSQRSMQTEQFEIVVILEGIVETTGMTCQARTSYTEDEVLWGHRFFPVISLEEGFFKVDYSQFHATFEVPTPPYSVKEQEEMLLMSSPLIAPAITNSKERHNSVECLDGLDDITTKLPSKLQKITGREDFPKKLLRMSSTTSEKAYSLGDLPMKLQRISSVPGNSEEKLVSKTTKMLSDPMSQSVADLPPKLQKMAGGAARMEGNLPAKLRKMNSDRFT
T1 sequence (P48051 1-423): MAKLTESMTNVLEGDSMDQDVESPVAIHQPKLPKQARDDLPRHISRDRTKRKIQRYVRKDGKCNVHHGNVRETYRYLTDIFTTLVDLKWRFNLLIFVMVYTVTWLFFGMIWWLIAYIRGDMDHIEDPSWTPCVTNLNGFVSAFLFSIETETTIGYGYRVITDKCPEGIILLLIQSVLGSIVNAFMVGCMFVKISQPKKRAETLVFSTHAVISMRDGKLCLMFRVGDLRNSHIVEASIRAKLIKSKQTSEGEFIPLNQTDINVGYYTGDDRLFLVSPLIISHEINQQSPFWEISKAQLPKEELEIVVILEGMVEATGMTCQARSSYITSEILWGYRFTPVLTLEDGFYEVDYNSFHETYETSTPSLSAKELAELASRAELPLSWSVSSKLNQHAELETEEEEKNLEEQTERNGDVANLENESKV
Excerpt: ML297 concentration response curves—In general, all concentration-response data were collected on a WaveFront Biosciences Panoptic 2. Thallos treated cells were imaged using 482/35 nm excitation and 536/40 nm emission filters. 8c treated cells were imaged using 529/24 nm excitation and 565/24 nm emission filters (unless otherwise noted). FluxOR Red treated cells were imaged using 544/24 nm excitation and 593/40 nm emission filters (all filters purchased from Semrock, Rochester, N.Y.). FluxOR Red reagent was prepared according to the manufacturer's procedure. 5 μM of 8c was used for dye loading for all conditions.
FluxOR Red procedure with background suppressor. The manufacturer's procedure was followed with the exceptions that the dye loading solution was replaced with 20 μL of assay buffer, solutions of ML297 were prepared in assay buffer plus background suppressor, 20 μL of compound solution was added and 10 μL stimulus buffer (basal) was added according to the general assay protocol described above.
FluxOR Red procedure without background suppressor. The FluxOR Red manufacturer's procedure was followed except the background suppressor was replaced by H2O in all buffers.
Bicarbonate buffer with Allura Red AC. The assay and stimulus buffers described in the general Tl^+ flux procedure were used for dye loading, assay buffer with ML297, and stimulus buffer. All buffers were supplemented with 1 mM of Allura Red AC. The wash step to remove dye loading buffer was omitted.
Bicarbonate buffer without Allura Red AC. The general Tl^+ flux procedure was followed without any solutions supplemented with Allura Red AC.
The fluorescence intensity values of the first 6 time points for each well were averaged and the fluorescence intensity for all time points in the well was divided by this value to provide F/Fo for each time point. The average F/Fo of the vehicle control was then subtracted from each curve and the normalized, control subtracted fluorescence intensity value was sampled at a time point several seconds after Tl^+ addition. […] Fold increases in fluorescence reported in the main paper were calculated by averaging F/Fo between 100 and 110 s after Tl^+ addition. Data presented in FIG. 3 and FIG. 6 were obtained using 8c with the FluxOR Red kit as described above under the FluxOR Red with background suppressor procedure.
The performance of 8c was evaluated in a Tl^+ flux assay to generate a concentration response curve (CRC) of the GIRK activator ML297. […] Normalized, control subtracted fluorescence intensity values were sampled along the curves following Tl^+ addition at each concentration and a CRC was fit using GraphPad Prism (FIG. 3B).

COc1cc(NC(=O)c2ccc3c(c2)C(=O)OC32c3ccc(NC(C)=O)cc3Oc3cc(OC(C)=O)ccc32)ccc1N(CC(=O)OCOC(C)=O)CC(=O)OCOC(C)=O (centres unmarked) [Compound 8b, bis(acetoxymethyl) 2,2′-((4-(3′-acetamido-6′-acetoxy-3-oxo-3H-spiro[isobenzofuran-1,9′-xanthen]-5-ylcarboxamido)-2-methoxyphenyl)azanediyl)diacetate]
fluorescence and response to Tl^+ in cells (in words) [1]: Fluorescence was not detected
λmax (absorption maximum) [2]: 463 nm
ε (molar absorptivity) [2]: 24000 M⁻¹ cm⁻¹
fluorescence of saponified dye (in words) ([2]; reason why spectra were not recorded): very weak fluorescence

CCN(CC)c1ccc2c(c1)Oc1cc(OC(C)=O)ccc1C21OC(=O)c2cc(C(=O)Nc3ccc(N(CC(=O)OCOC(C)=O)CC(=O)OCOC(C)=O)c(OC)c3)ccc21 (centres unmarked) [Compound 8d, bis(acetoxymethyl) 2,2′-((4-(3′-acetoxy-6′-(diethylamino)-3-oxo-3H-spiro[isobenzofuran-1,9′-xanthen]-5-ylcarboxamido)-2-methoxyphenyl)azanediyl)diacetate]
on/off (Tl^+ flux assay), maximum fold increase in fluorescence after Tl^+ addition [1]: 3.28 ± 0.04 fold
λem (fluorescence emission maximum) [2]: 551 nm
λmax (absorption maximum) [2]: 525 nm
ε (molar absorptivity) [2]: 55000 M⁻¹ cm⁻¹

CCCN(CCC)c1ccc2c(c1)Oc1cc(OC(C)=O)ccc1C21OC(=O)c2cc(C(=O)Nc3ccc(N(CC(=O)OCOC(C)=O)CC(=O)OCOC(C)=O)c(OC)c3)ccc21 (centres unmarked) [Compound 8e, bis(acetoxymethyl) 2,2′-((4-(3′-acetoxy-6′-(dipropylamino)-3-oxo-3H-spiro[isobenzofuran-1,9′-xanthen]-5-ylcarboxamido)-2-methoxyphenyl)azanediyl)diacetate]
on/off (Tl^+ flux assay), maximum fold increase in fluorescence after Tl^+ addition [1]: 2.94 ± 0.08 fold
λem (fluorescence emission maximum) [2]: 553 nm
λmax (absorption maximum) [2]: 527 nm
ε (molar absorptivity) [2]: 66000 M⁻¹ cm⁻¹

CCCCN(CCCC)c1ccc2c(c1)Oc1cc(OC(C)=O)ccc1C21OC(=O)c2cc(C(=O)Nc3ccc(N(CC(=O)OCOC(C)=O)CC(=O)OCOC(C)=O)c(OC)c3)ccc21 (centres unmarked) [Compound 8f, bis(acetoxymethyl) 2,2′-((4-(3′-acetoxy-6′-(dibutylamino)-3-oxo-3H-spiro[isobenzofuran-1,9′-xanthen]-5-ylcarboxamido)-2-methoxyphenyl)azanediyl)diacetate]
on/off (Tl^+ flux assay), maximum fold increase in fluorescence after Tl^+ addition [1]: 1.52 ± 0.01 fold
λem (fluorescence emission maximum) [2]: 556 nm
λmax (absorption maximum) [2]: 528 nm
ε (molar absorptivity) [2]: 58000 M⁻¹ cm⁻¹

COc1cc(NC(=O)c2ccc3c(c2)C(=O)OC32c3ccc(NC4CCCCC4)cc3Oc3cc(OC(C)=O)ccc32)ccc1N(CC(=O)OCOC(C)=O)CC(=O)OCOC(C)=O (centres unmarked) [Compound 8g, bis(acetoxymethyl) 2,2′-((4-(3′-acetoxy-6′-(cyclohexylamino)-3-oxo-3H-spiro[isobenzofuran-1,9′-xanthen]-5-ylcarboxamido)-2-methoxyphenyl)azanediyl)diacetate]
on/off (Tl^+ flux assay), maximum fold increase in fluorescence after Tl^+ addition [1]: 4.26 ± 0.07 fold
λem (fluorescence emission maximum) [2]: 535 nm
λmax (absorption maximum) [2]: 514 nm
ε (molar absorptivity) [2]: 57000 M⁻¹ cm⁻¹

CCCCNc1ccc2c(c1)Oc1cc(OC(C)=O)ccc1C21OC(=O)c2cc(C(=O)Nc3ccc(N(CC(=O)OCOC(C)=O)CC(=O)OCOC(C)=O)c(OC)c3)ccc21 (centres unmarked) [Compound 8h, bis(acetoxymethyl) 2,2′-((4-(3′-acetoxy-6′-(butylamino)-3-oxo-3H-spiro[isobenzofuran-1,9′-xanthen]-5-ylcarboxamido)-2-methoxyphenyl)azanediyl)diacetate]
on/off (Tl^+ flux assay), maximum fold increase in fluorescence after Tl^+ addition [1]: 3.50 ± 0.07 fold
λem (fluorescence emission maximum) [2]: 533 nm
λmax (absorption maximum) [2]: 511 nm
ε (molar absorptivity) [2]: 48000 M⁻¹ cm⁻¹

Cc1cc(NC(=O)Nc2ccc(F)c(F)c2)n(-c2ccccc2)n1 [ML297]
EC50 (GIRK1 and GIRK2; dye 8c (5 μM, 1 h), FluxOR Red kit with background suppressor, 1 mM Tl^+): 257 ± 3.7 nM
pEC50 and standard error of ML297 activation (GIRK1 and GIRK2; dye 8c (544x/593m filters), FluxOR Red Kit, Background Suppressor +): 6.63 ± 0.01
pEC50 and standard error of ML297 activation (GIRK1 and GIRK2; dye 8c (544x/593m filters), FluxOR Red Kit, Background Suppressor −): 6.66 ± 0.04
pEC50 and standard error of ML297 activation (GIRK1 and GIRK2; dye 8c, FluxOR Red Kit, Background Suppressor +): 6.59 ± 0.01
pEC50 and standard error of ML297 activation (GIRK1 and GIRK2; dye 8c, FluxOR Red Kit, Background Suppressor −): 6.61 ± 0.02
pEC50 and standard error of ML297 activation (GIRK1 and GIRK2; dye 8c, HCO3^− Stimulus Buffer, 1 mM Allura Red AC +): 6.69 ± 0.01
pEC50 and standard error of ML297 activation (GIRK1 and GIRK2; dye 8c, HCO3^− Stimulus Buffer, 1 mM Allura Red AC −): 6.59 ± 0.03
EC50 (GIRK1 and GIRK2; dye 8c, bicarbonate stimulus buffer, 500 μM Tl^+, no-wash, 1 mM Allura Red AC): 204 ± 5.2 nM
pEC50 and standard error of ML297 activation (GIRK1 and GIRK2; dye FluxOR Red, FluxOR Red Kit, Background Suppressor +): 6.64 ± 0.01
pEC50 and standard error of ML297 activation (GIRK1 and GIRK2; dye FluxOR Red, FluxOR Red Kit, Background Suppressor −): 6.41 ± 0.03
pEC50 and standard error of ML297 activation (GIRK1 and GIRK2; dye FluxOR Red, HCO3^− Stimulus Buffer, 1 mM Allura Red AC −): 7.02 ± 0.1
pEC50 and standard error of ML297 activation (GIRK1 and GIRK2; dye Thallos, FluxOR Red Kit, Background Suppressor +): 6.57 ± 0.04
pEC50 and standard error of ML297 activation (GIRK1 and GIRK2; dye Thallos, FluxOR Red Kit, Background Suppressor −): 6.65 ± 0.02
pEC50 and standard error of ML297 activation (GIRK1 and GIRK2; dye Thallos, HCO3^− Stimulus Buffer, 1 mM Allura Red AC +): 6.66 ± 0.01
pEC50 and standard error of ML297 activation (GIRK1 and GIRK2; dye Thallos, HCO3^− Stimulus Buffer, 1 mM Allura Red AC −): 6.61 ± 0.01
EC50 (GIRK1 and GIRK2; dye Thallos, bicarbonate stimulus buffer, 500 μM Tl^+, no-wash, 1 mM Allura Red AC): 219 ± 23 nM
EC50 (GIRK1 and GIRK2; dye Thallos, same procedure (FluxOR Red kit with background suppressor)): 272 ± 23 nM
